According to patent US20050197350A1, “Novel quinoline, tetrahydroquinazoline, and pyrimidine derivatives and methods of treatment related to the use thereof” (TAISHO PHARMACEUTICAL CO., LTD., priority 2003, published 2005):

The molecules below were run on MCH receptors (assay: MCH receptor activity class (method not given)). Details: class by percent of control at 10^-7 M or IC50.
With Cc1cc(=O)oc2c(OCC(=O)N[C@H]3CC[C@@H](Nc4nccc(N(C)C)n4)CC3)cccc12 [compound 363] the class was 3 (Class 3 The value of percent of control at 10^−7 M was more than 60% or the value of IC50 was more than 200 nM.). For CN(C)c1ccnc(N[C@H]2CC[C@@H](NC(=O)c3csc(-c4cccs4)n3)CC2)n1 [compound 364, N-(cis-4-{[4-(dimethylamino)pyrimidin-2-yl]amino}cyclohexyl)-2-(2-thienyl)-1,3-thiazole-4-carboxamide], the class was 1 (Class 1: The value of percent of control at 10^−7 M was less than 40% or the value of IC50 was less than 50 nM.). With COc1cccc(C(=O)NC[C@H]2CC[C@@H](Nc3nccc(N(C)C)n3)CC2)c1 [compound 365] the class was 3 (Class 3 The value of percent of control at 10^−7 M was more than 60% or the value of IC50 was more than 200 nM.). In the case of CN(C)c1ccnc(N[C@H]2CC[C@@H](CNC(=O)c3cccc(Br)c3)CC2)n1 [compound 366], the class is reported as 3 (Class 3 The value of percent of control at 10^−7 M was more than 60% or the value of IC50 was more than 200 nM.). With CN(C)c1ccnc(N[C@H]2CC[C@@H](CNC(=O)c3ccc(Br)cc3)CC2)n1 [compound 367] the class was 3 (Class 3 The value of percent of control at 10^−7 M was more than 60% or the value of IC50 was more than 200 nM.). With CN(C)c1ccnc(N[C@H]2CC[C@@H](CNC(=O)c3ccc4nonc4c3)CC2)n1 [compound 368] the class was 3 (Class 3 The value of percent of control at 10^−7 M was more than 60% or the value of IC50 was more than 200 nM.). With CN(C)c1ccnc(N[C@H]2CC[C@@H](CNC(=O)c3cccc(Cl)c3)CC2)n1 [compound 369] the class was 3 (Class 3 The value of percent of control at 10^−7 M was more than 60% or the value of IC50 was more than 200 nM.). In the case of CN(C)c1ccnc(N[C@H]2CC[C@@H](CNC(=O)c3ccc(Cl)cc3)CC2)n1 [compound 370], the class is reported as 2 (Class 2: The value of percent of control at 10^−7 M was from 40% to 60% or the value of IC′50 was from 50 nM to 200 nM.). For CN(C)c1ccnc(N[C@H]2CC[C@@H](CNC(=O)/C=C/c3ccccc3)CC2)n1 [compound 371], the class was 2 (Class 2: The value of percent of control at 10^−7 M was from 40% to 60% or the value of IC′50 was from 50 nM to 200 nM.). For CN(C)c1ccnc(N[C@H]2CC[C@@H](CNC(=O)c3ccc(Cl)c([N+](=O)[O-])c3)CC2)n1 [compound 372], the class was 2 (Class 2: The value of percent of control at 10^−7 M was from 40% to 60% or the value of IC′50 was from 50 nM to 200 nM.). CN(C)c1ccnc(N[C@H]2CC[C@@H](CNC(=O)Cc3ccc(Cl)cc3)CC2)n1 [compound 373] was tested, and the class was 2 (Class 2: The value of percent of control at 10^−7 M was from 40% to 60% or the value of IC′50 was from 50 nM to 200 nM.). With CN(C)c1ccnc(N[C@H]2CC[C@@H](CNC(=O)c3cccc(C#N)c3)CC2)n1 [compound 374] the class was 3 (Class 3 The value of percent of control at 10^−7 M was more than 60% or the value of IC50 was more than 200 nM.). For CN(C)c1ccnc(N[C@H]2CC[C@@H](CNC(=O)c3cc(Cl)cc(Cl)c3)CC2)n1 [compound 375], the class was 2 (Class 2: The value of percent of control at 10^−7 M was from 40% to 60% or the value of IC′50 was from 50 nM to 200 nM.). With CN(C)c1ccnc(N[C@H]2CC[C@@H](CNC(=O)c3ccc(Cl)c(Cl)c3)CC2)n1 [compound 376] the class was 2 (Class 2: The value of percent of control at 10^−7 M was from 40% to 60% or the value of IC′50 was from 50 nM to 200 nM.). For CN(C)c1ccnc(N[C@H]2CC[C@@H](CNC(=O)C(c3ccccc3)c3ccccc3)CC2)n1 [compound 377, N-[(cis-4-{[4-(dimethylamino)pyrimidin-2-yl]amino}cyclohexyl)methyl]-2,2-diphenylacetamide], the class was 1 (Class 1: The value of percent of control at 10^−7 M was less than 40% or the value of IC50 was less than 50 nM.). In the case of CN(C)c1ccnc(N[C@H]2CC[C@@H](CNC(=O)c3ccc(F)c(F)c3)CC2)n1 [compound 378], the class is reported as 3 (Class 3 The value of percent of control at 10^−7 M was more than 60% or the value of IC50 was more than 200 nM.). CN(C)c1ccnc(N[C@H]2CC[C@@H](CNC(=O)c3cc(F)cc(F)c3)CC2)n1 [compound 379] was tested, and the class was 3 (Class 3 The value of percent of control at 10^−7 M was more than 60% or the value of IC50 was more than 200 nM.). With COc1ccc(OC)c(CC(=O)NC[C@H]2CC[C@@H](Nc3nccc(N(C)C)n3)CC2)c1 [compound 380] the class was 3 (Class 3 The value of percent of control at 10^−7 M was more than 60% or the value of IC50 was more than 200 nM.). With CCSc1ncccc1C(=O)NC[C@H]1CC[C@@H](Nc2nccc(N(C)C)n2)CC1 [compound 381] the class was 3 (Class 3 The value of percent of control at 10^−7 M was more than 60% or the value of IC50 was more than 200 nM.). With CN(C)c1ccnc(N[C@H]2CC[C@@H](CNC(=O)c3ccc(F)cc3)CC2)n1 [compound 382] the class was 3 (Class 3 The value of percent of control at 10^−7 M was more than 60% or the value of IC50 was more than 200 nM.). In the case of CN(C)c1ccnc(N[C@H]2CC[C@@H](CNC(=O)c3cc(F)cc(C(F)(F)F)c3)CC2)n1 [compound 383], the class is reported as 3 (Class 3 The value of percent of control at 10^−7 M was more than 60% or the value of IC50 was more than 200 nM.). In the case of CN(C)c1ccnc(N[C@H]2CC[C@@H](CNC(=O)c3cc(F)c(Cl)cc3Cl)CC2)n1 [compound 384], the class is reported as 2 (Class 2: The value of percent of control at 10^−7 M was from 40% to 60% or the value of IC′50 was from 50 nM to 200 nM.). With CCCCCC(=O)NC[C@H]1CC[C@@H](Nc2nccc(N(C)C)n2)CC1 [compound 385] the class was 3 (Class 3 The value of percent of control at 10^−7 M was more than 60% or the value of IC50 was more than 200 nM.). For CN(C)c1ccnc(N[C@H]2CC[C@@H](CNC(=O)c3ccc(I)cc3)CC2)n1 [compound 386], the class was 3 (Class 3 The value of percent of control at 10^−7 M was more than 60% or the value of IC50 was more than 200 nM.). With CSc1ncccc1C(=O)NC[C@H]1CC[C@@H](Nc2nccc(N(C)C)n2)CC1 [compound 387] the class was 3 (Class 3 The value of percent of control at 10^−7 M was more than 60% or the value of IC50 was more than 200 nM.). In the case of Cc1ccc(C(=O)NC[C@H]2CC[C@@H](Nc3nccc(N(C)C)n3)CC2)cc1[N+](=O)[O-] [compound 388], the class is reported as 3 (Class 3 The value of percent of control at 10^−7 M was more than 60% or the value of IC50 was more than 200 nM.). CN(C)c1ccnc(N[C@H]2CC[C@@H](CNC(=O)c3cccc([N+](=O)[O-])c3)CC2)n1 [compound 389] was tested, and the class was 3 (Class 3 The value of percent of control at 10^−7 M was more than 60% or the value of IC50 was more than 200 nM.). In the case of CN(C)c1ccnc(N[C@H]2CC[C@@H](CNC(=O)Cc3ccccc3)CC2)n1 [compound 390], the class is reported as 3 (Class 3 The value of percent of control at 10^−7 M was more than 60% or the value of IC50 was more than 200 nM.). For CN(C)c1ccnc(N[C@H]2CC[C@@H](CNC(=O)C3C[C@H]3c3ccccc3)CC2)n1 (stereo partly shown) [compound 391], the class was 3 (Class 3 The value of percent of control at 10^−7 M was more than 60% or the value of IC50 was more than 200 nM.). In the case of CN(C)c1ccnc(N[C@H]2CC[C@@H](CNC(=O)c3ccc4c(c3)OCO4)CC2)n1 [compound 392], the class is reported as 3 (Class 3 The value of percent of control at 10^−7 M was more than 60% or the value of IC50 was more than 200 nM.). With Cc1cccc(C(=O)NC[C@H]2CC[C@@H](Nc3nccc(N(C)C)n3)CC2)c1 [compound 395] the class was 3 (Class 3 The value of percent of control at 10^−7 M was more than 60% or the value of IC50 was more than 200 nM.). In the case of Cc1ccc(C(=O)NC[C@H]2CC[C@@H](Nc3nccc(N(C)C)n3)CC2)cc1 [compound 396], the class is reported as 3 (Class 3 The value of percent of control at 10^−7 M was more than 60% or the value of IC50 was more than 200 nM.). For CN(C)c1ccnc(N[C@H]2CC[C@@H](CNC(=O)c3cccs3)CC2)n1 [compound 397], the class was 3 (Class 3 The value of percent of control at 10^−7 M was more than 60% or the value of IC50 was more than 200 nM.). With CN(C)c1ccnc(N[C@H]2CC[C@@H](CNC(=O)Cc3cccs3)CC2)n1 [compound 398] the class was 3 (Class 3 The value of percent of control at 10^−7 M was more than 60% or the value of IC50 was more than 200 nM.). CN(C)c1ccnc(N[C@H]2CC[C@@H](CNC(=O)c3cccc(OC(F)(F)F)c3)CC2)n1 [compound 399] was tested, and the class was 3 (Class 3 The value of percent of control at 10^−7 M was more than 60% or the value of IC50 was more than 200 nM.). For CN(C)c1ccnc(N[C@H]2CC[C@@H](CNC(=O)OCc3ccccc3)CC2)n1 [compound 400], the class was 3 (Class 3 The value of percent of control at 10^−7 M was more than 60% or the value of IC50 was more than 200 nM.). In the case of CN(C)c1ccnc(N[C@H]2CC[C@@H](CNC(=O)OCc3ccc([N+](=O)[O-])cc3)CC2)n1 [compound 401], the class is reported as 3 (Class 3 The value of percent of control at 10^−7 M was more than 60% or the value of IC50 was more than 200 nM.). With Cc1cc(C(=O)NC[C@H]2CC[C@@H](Nc3nccc(N(C)C)n3)CC2)ccc1Br [compound 402] the class was 3 (Class 3 The value of percent of control at 10^−7 M was more than 60% or the value of IC50 was more than 200 nM.). With CN(C)c1ccnc(N[C@H]2CC[C@@H](CNC(=O)c3cccc(I)c3)CC2)n1 [compound 403] the class was 3 (Class 3 The value of percent of control at 10^−7 M was more than 60% or the value of IC50 was more than 200 nM.). With CN(C)c1ccnc(N[C@H]2CC[C@@H](CNC(=O)c3cccc(Cl)c3F)CC2)n1 [compound 404] the class was 3 (Class 3 The value of percent of control at 10^−7 M was more than 60% or the value of IC50 was more than 200 nM.). Cc1ccc(C(=O)NC[C@H]2CC[C@@H](Nc3nccc(N(C)C)n3)CC2)c(F)c1F [compound 405] was tested, and the class was 3 (Class 3 The value of percent of control at 10^−7 M was more than 60% or the value of IC50 was more than 200 nM.). With CN(C)c1ccnc(N[C@H]2CC[C@@H](CNC(=O)c3ccc(F)cc3Cl)CC2)n1 [compound 406] the class was 3 (Class 3 The value of percent of control at 10^−7 M was more than 60% or the value of IC50 was more than 200 nM.). In the case of CN(C)c1ccnc(N[C@H]2CC[C@@H](CNC(=O)c3ccc(F)c(Cl)c3F)CC2)n1 [compound 407], the class is reported as 3 (Class 3 The value of percent of control at 10^−7 M was more than 60% or the value of IC50 was more than 200 nM.).
